Experimental data taken from article PMC9675978 (The Journal of steroid biochemistry and molecular biology, 2022).
Residue numbers refer to the chain shown, from its start. Counter-ions that a name gives are not always drawn.

Key:
AKR1C3 K104D [1] = target: T1, AKR1C3 K104D (Homo sapiens, UniProt P42330, K104D); experiment: Specific activity after preincubation at 37 °C with cofactor; type: biochemical; conditions: alone roughly 50%
T1 sequence (P42330 1-323 K104D): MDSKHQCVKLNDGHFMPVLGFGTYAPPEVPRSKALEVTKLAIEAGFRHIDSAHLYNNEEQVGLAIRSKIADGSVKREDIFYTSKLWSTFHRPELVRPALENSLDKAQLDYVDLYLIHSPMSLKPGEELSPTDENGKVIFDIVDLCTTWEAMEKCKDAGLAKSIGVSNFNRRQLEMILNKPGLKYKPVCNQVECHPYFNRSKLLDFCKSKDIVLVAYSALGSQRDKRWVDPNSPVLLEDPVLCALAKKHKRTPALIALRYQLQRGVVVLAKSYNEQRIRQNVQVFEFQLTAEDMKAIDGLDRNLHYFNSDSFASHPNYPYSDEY

AKR1C3 H5Q = target: T2, AKR1C3 H5Q (Homo sapiens, UniProt P42330, H5Q); experiment: Kd for NAD; type: binding; conditions: read-out: Kd NADP+, 0.5 μM protein, pH 7.0, 25 °C, Morrison equation
T2 sequence (P42330 1-323 H5Q): T1 sequence (P42330 1-323 K104D) with H5Q, D104K

AKR1C3 E77G = target: T3, AKR1C3 E77G (Homo sapiens, UniProt P42330, E77G); experiment: Kd for NAD; type: binding; conditions: read-out: Kd NADP+, 0.5 μM protein, pH 7.0, 25 °C, Morrison equation
T3 sequence (P42330 1-323 E77G): T1 sequence (P42330 1-323 K104D) with E77G, D104K

AKR1C3 WT = target: T4, AKR1C3 WT (Homo sapiens, UniProt P42330); experiment: Kd for NAD; type: binding; conditions: read-out: Kd NADP+, 0.5 μM protein, pH 7.0, 25 °C, Morrison equation
T4 sequence (P42330 1-323): T1 sequence (P42330 1-323 K104D) with D104K

AKR1C3 = conditions: cited from earlier work
AKR1C3 K104D [2] = target: T1, AKR1C3 K104D; experiment: Kd for NAD; type: binding; conditions: read-out: Kd NADP+, 0.5 μM protein, pH 7.0, 25 °C, Morrison equation

| K104D activity remaining (% of activity at 0 min) (AKR1C3 K104D [1]; K104D preincubated at 37 °C with 2 mM NAD+, four hours) | Kd (AKR1C3 H5Q) | Kd (AKR1C3 E77G) | Kd (AKR1C3 WT) | Kd (AKR1C3 K104D [2]) | K104D activity remaining (% of activity at 0 min) (AKR1C3 K104D [1]; K104D preincubated at 37 °C with 2 mM NADP+, over four hours) | SMILES | binding affinity of NADP+ relative to NAD+ (AKR1C3) |
| --- | --- | --- | --- | --- | --- | --- | --- |
| roughly 75% | – | – | – | – | – | NC(=O)c1ccc[n+]([C@@H]2O[C@H](COP(=O)([O-])OP(=O)(O)OC[C@H]3O[C@@H](n4cnc5c(N)ncnc54)[C@H](O)[C@@H]3O)[C@@H](O)[C@H]2O)c1 [NAD+, nicotinamide adenine dinucleotide Grade II free acid] | – |
| – | 120 ± 33 nM | 120 ± 35 nM | 110 ± 17 nM | 100 ± 47 nM | 100% | NC(=O)c1ccc[n+]([C@@H]2O[C@H](COP(=O)([O-])OP(=O)(O)OC[C@H]3O[C@@H](n4cnc5c(N)ncnc54)[C@H](OP(=O)(O)O)[C@@H]3O)[C@@H](O)[C@H]2O)c1 [NADP+, nicotinamide adenine dinucleotide phosphate oxidized disodium salt] | ~1000 times |
